Experimental data from ChEMBL document CHEMBL1121517, “Estrogen receptor based imaging agents. 1. Synthesis and receptor binding affinity of some aromatic and D-ring halogenated estrogens” (J Med Chem, 1980).

What follows are compounds tested against Estrogen receptor (Ovis aries) (UniProt P49885+Q9TU15).

Row | SMILES | RAC
1 | CCC(c1ccc(O)c(I)c1)C(CC)c1ccc(O)c(I)c1 (stereo not drawn) | 3.2
2 | CCC(c1ccc(O)c(F)c1)C(CC)c1ccc(O)c(F)c1 (stereo not drawn) | 64
3 | C[C@]12CC[C@@H]3c4cc(I)c(O)cc4CC[C@H]3[C@@H]1CC[C@@H]2O | < 0.1
4 | C[C@]12CC[C@@H]3c4cc(F)c(O)cc4CC[C@H]3[C@@H]1CC[C@@H]2O | 86
5 | CCC(c1ccc(O)cc1)C(CC)c1ccc(O)c(Br)c1 (stereo not drawn) | 16
6 | C[C@]12CC[C@@H]3c4ccc(O)cc4CC[C@H]3[C@@H]1C[C@@H](Cl)[C@@H]2O | 100
7 | C[C@]12CC[C@@H]3c4ccc(O)cc4CC[C@H]3[C@@H]1C[C@H](Br)[C@@H]2O | 4.7
8 | CC[C@H](c1ccc(O)cc1)[C@@H](CC)c1ccc(O)cc1 | 300
9 | C[C@]12CC[C@@H]3c4ccc(O)cc4CC[C@H]3[C@@H]1C[C@@H](I)[C@@H]2O | 100
10 | C[C@]12CC[C@@H]3c4ccc(O)cc4CC[C@H]3[C@@H]1C[C@@H](Cl)[C@H]2O | 9.2
11 | COc1ccc2c(c1)CC[C@@H]1[C@@H]2CC[C@]2(C)C(=O)CC[C@@H]12 | 12
12 | C[C@]12CC[C@@H]3c4cc(Br)c(O)cc4CC[C@H]3[C@@H]1CC[C@@H]2O | 1.2
13 | CCC(c1ccc(O)c(Br)c1)C(CC)c1ccc(O)c(Br)c1 (stereo not drawn) | 2.6
14 | CCC(c1ccc(O)c(Br)c1)C(CC)c1cc(Br)c(O)c(Br)c1 (stereo not drawn) | 0.72
15 | CCC(c1ccc(O)c(I)c1)C(CC)c1cc(I)c(O)c(I)c1 (stereo not drawn) | 0.14
16 | C[C@]12CC[C@@H]3c4ccc(O)c(Br)c4CC[C@H]3[C@@H]1CC[C@@H]2O | 10
17 | COc1ccc2c(c1)CC[C@@H]1[C@@H]2CC[C@]2(C)C(=O)[C@H](Br)C[C@@H]12 | 3.5
18 | CCC(c1ccc(O)cc1)C(CC)c1ccc(O)c(F)c1 (stereo not drawn) | 205
19 | C[C@]12CC[C@@H]3c4ccc(O)cc4CC[C@H]3[C@@H]1C[C@@H](Br)[C@H]2O | 4.8
20 | C[C@]12CC[C@@H]3c4ccc(O)cc4CC[C@H]3[C@@H]1C[C@@H](Br)[C@@H]2O | 127
21 | CCC(c1cc(I)c(O)c(I)c1)C(CC)c1cc(I)c(O)c(I)c1 (stereo not drawn) | 0.002
22 | CCC(c1cc(Br)c(O)c(Br)c1)C(CC)c1cc(Br)c(O)c(Br)c1 (stereo not drawn) | < 0.17
23 | C[C@]12CC[C@@H]3c4ccc(O)cc4CC[C@H]3[C@@H]1C[C@H](I)[C@@H]2O | 57
24 | COc1ccc2c(c1)CC[C@@H]1[C@@H]2CC[C@]2(C)C(=O)[C@@H](Br)C[C@@H]12 | 0.14
25 | CCC(c1ccc(O)cc1)C(CC)c1ccc(O)c(I)c1 (stereo not drawn) | 14
26 | C[C@]12CC[C@@H]3c4ccc(O)c(F)c4CC[C@H]3[C@@H]1CC[C@@H]2O | 128
27 | COc1ccc2c(c1)CC[C@@H]1[C@@H]2CC[C@]2(C)C(=O)[C@H](Cl)C[C@@H]12 | 0.48
28 | CCC(c1ccc(O)cc1)C(CC)c1cc(I)c(O)c(I)c1 (stereo not drawn) | 1.9
